# Source: patent US20260200903A1, “PHARMACEUTICAL COMPOSITION FOR AMELIORATING MALIGNANT DISEASES” (KINKI UNIVERSITY, priority 2020, published 2026)
# Columns and labels:
# Assay type in all cases: cell-based
# [1] = tested on: SU-DHL-4 cells (diffuse large B-cell lymphoma); experiment: Cell death inducing effect on SU-DHL-4 cells, trypan blue staining; details: Homo sapiens; SU-DHL-4 (DLBCL), cell viability
# Protocol: SU-DHL-4 cells (diffuse large B-cell lymphoma) were cultured under 5% CO2 at 37° C.
# (§1) The culture medium used RPMI-1640 medium with 100 μg/mL penicillin, 100 U/mL streptomycin and fetal bovine serum. SU-DHL-4 cells were seeded into 96-well plates and incubated with each concentration of the compounds was added, and cell viability was determined by the trypan blue staining.
# (§2) For controls, only 0.5% DMSO (diluted in PBS) used to dissolve the compounds was added. For each concentration, each bar line is indicated by an arrow with the sign “n, a, 1, 2, 3, 4, 5, 6, 7, 8, 9, 10, 11, 12” from left to right. The “1, 3, 5, 7, 9, 11” are omitted from the graph, but the sign “1” shall be indicated by an arrow between the signs “a” and “2”, the sign “3” between the signs “2” and “4”, and other odd numbers shall likewise be indicated by arrows between even numbers before and after.
# (§3) The sign “n” is the norathyriol (formula (n)) administration group, the sign “a” is the mangiferin 8a (formula (a)) administration group, the sign “1” is the yk-7 (formula (1)) administration group, the sign “2” is the yk-8-1 (formula (2)) administration group, the sign “3” is the yk-8-3 (formula (3)) administration group, the sign “4” is the M7 (formula (4)) administration group, the sign “5” is the M9 (formula (5)) administration group, the sign “6” is the M11 (formula (6)) administration group, the sign “7” is the M12 (formula (7)) administration group, the sign “8” is the M14 (formula (8)) administration group, the sign “9” is the M15 (formula (9)) administration group, the sign “10” is the M16 (formula (10)) administration group, the sign “11” is the M18 (formula (11)) administration group, the sign “12” is the M19 (formula (12)) administration group, respectively. The IC50 values for each compound is also listed in the upper right corner of the figure.
# [2] = tested on: CD138; experiment: CD138 expression in L363 cells, flow cytometry; details: 10 days, concentration lower than the IC50 (0.005-50 μM), compared to the positive control
# Protocol: As a control, compounds untreated L363 cells were seeded in 75 cm^2 flasks and incubated for 10 days at 37° C. and 5% CO2. L363 cells were seeded into 75 cm^2 flasks and pre-cultured for 4 h. After incubation, L363 cells were treated with 0.1 μM M7, 0.05 μM M9, 0.1 μM yk-7, 0.1 μM yk-8-3, 50 μM yk-8-1, 0.1 μM M11, 0.01 μM M12, 0.005 μM M14, 0.005 μM M15, 0.005 μM M16, 1 μM M18, and 1 μM M19 at final concentrations, and incubated for 10 days at 37° C. and 5% CO2. This added amount is a concentration lower than the IC50 of the above compounds for L363 cells. After 10 days of incubation, cells were stained with anti-CD138 antibody, a marker of multiple myeloma grade, and CD138 expression was measured using BD LSRFortessa.
# Results are shown in FIG. 25, FIG. 26, FIG. 27 and FIG. 28. The horizontal axis represents the expression level of CD138 and the vertical axis represents the number of cells.
# [3] = tested on: CD138; experiment: CD138 expression in KMS-28BM cells, flow cytometry; details: 10 days, concentration lower than the IC50 (0.005-50 μM), compared to the positive control
# Protocol: As a control, compounds untreated KMS-28BM cells were seeded in 75 cm^2 flasks and incubated for 10 days at 37° C. and 5% CO2. KMS-28BM cells were seeded into 75 cm^2 flasks and pre-cultured for 4 h. After incubation, KMS-28BM cells were treated with […], 0.05 μM M9, 0.1 μM yk-7, 0.1 μM yk-8-3, 50 μM yk-8-1, 0.5 μM M11, […], 0.005 μM M14, 0.005 μM M15, 0.005 μM M16, 0.5 μM M18, and 0.5 μM M19 at final concentrations, and incubated for 10 days at 37° C. and 5% CO2. This added amount is a concentration lower than the IC50 of the above compounds for KMS-28BM cells. After 10 days of incubation, cells were stained with anti-CD138 antibody, a marker of multiple myeloma grade, and CD138 expression was measured using BD LSRFortessa.
# Results are shown in FIG. 17, FIG. 18, FIG. 19 and FIG. 20. The horizontal axis represents the expression level of CD138 and the vertical axis represents the number of cells.
# [4] = tested on: Rec-1 cells (mantle cell lymphoma cell line); experiment: Cell death inducing effect on Rec-1 cells, trypan blue staining; details: Homo sapiens, Rec1; Rec-1 (mantle cell lymphoma), cell viability
# Protocol: as §1, with “Rec-1 cells (mantle cell lymphoma cell line) were cultured under 5% CO2 at 37° C. The” for “The”, “Rec-1” for “SU-DHL-4”
# as §2, §3
# [5] = tested on: RPMI1788 cells (human normal B cell line); experiment: Cell death inducing effect on RPMI1788 normal B cells, trypan blue staining; details: Homo sapiens, RPMI-1788; RPMI1788 (normal B lymphocyte), cell viability
# Protocol: as §1, with “RPMI1788 cells (human normal B cell line) were cultured under 5% CO2 at 37° C. The” for “The”, “RPMI1788” for “SU-DHL-4”
# as §2, §3
# [6] = tested on: CCRF-SB cells (acute lymphocytic leukemia cell line); experiment: Cell death inducing effect on CCRF-SB cells, trypan blue staining; details: Homo sapiens; CCRF-SB (acute lymphoblastic leukemia), cell viability
# Protocol: as §1, with “CCRF-SB cells (acute lymphocytic leukemia cell line) were cultured under 5% CO2 at 37° C. The” for “The”, “CCRF-SB” for “SU-DHL-4”
# as §2, §3
# [7] = tested on: RR1 cells (rituximab-resistant burkitt lymphoma cell line); experiment: Cell death inducing effect on RR1 cells, trypan blue staining; details: RR1 (Burkkit lymphoma; rituximab resistance), cell viability
# Protocol: Raji cells, a burkitt lymphoma cell line, were modified to be rituximab-resistant and named RR1 cells.
# as §1, with “RR1 cells (rituximab-resistant burkitt lymphoma cell line) were cultured under 5% CO2 at 37° C. The” for “The”, “RR-1” for “SU-DHL-4”
# as §2, §3
smiles,measurement,setting,value
"CCCCC(=O)OC[C@H]1O[C@@H](c2c(O)cc3oc4cc(O)c(O)cc4c(=O)c3c2OC(=O)CCCC)[C@H](OC(=O)CCCC)[C@@H](OC(=O)CCCC)[C@@H]1OC(=O)CCCC [yk-8-3, 1,2′,3′,4′,6-penta-O-valerylmangiferin]",IC50,[1],346 nM
same,CD138 expression levels,[2],markedly reduced
same,CD138 expression levels,[3],markedly reduced
same,IC50,[4],3310 nM
same,IC50,[5],416 nM
same,IC50,[6],2410 nM
same,IC50,[7],72 nM
